# From US4357341A, “Specific irreversible antagonism of histamine receptors by photoaffinity actuated compounds” (priority 1981, dated 1982)
# Where two headings read alike, the source gives them in different places.
# Assays:
# [1] = tested on: smooth muscle of the guinea-pig vas deferens, norepinephrine responses; assay: Norepinephrine-induced contraction of isolated vas deferens (specificity of AAH); format: cell-based; details: 3×10^-5 M AAH
# Experimental: (§1) The tissues were washed every 15 minutes. Resting tension was 200 mg.
# (§2) The effects of AAH on the response of the smooth muscle of the guinea-pig vas deferens to several agonists were examined using the following protocols.
# (§3) Effect of AAH after photoactivation. While in the organ bath, one tissue of a pair was exposed to AAH for 5 minutes. The preparation was then irradiated with a tungsten-halogen projector lamp (DVY, 650 W, 3400° K., filament ca. 10 cm from the tissue) for 5 minutes. Bath temperature remained at 37° C. during irradiation. At the end of irradiation the tissues were washed twice with fresh Krebs-Kenseleit solution lacking AAH. Concentration-response determinations were begun 10 minutes after irradiation. Contralateral control tissues were irradiated in the absence of AAH and otherwise handled identically. […] Also shown is the time-course of the decline of absorbance at 266 nm. The native spectrum, consisting of a pronounced peak at 266 nm, shoulder at 286 and broad peak at 480-485 nm, was changed by photolysis in a time-dependent manner to one with several smaller peaks and troughs.
# (§4) Effect of AAH without photoactivation. Two types of experiments were performed with non-irradiated AAH. In the first type, the test tissue was exposed to AAH for 10 minutes but not irradiated during the latter five minutes; the AAH was washed out before agonist agents were added. […]
# [2] = tested on: smooth muscle of the guinea-pig vas deferens, acetylcholine responses; assay: Acetylcholine-induced contraction of isolated vas deferens (specificity of AAH); format: cell-based
# Experimental: as §1, §2, §3
# (§5) Effect of AAH without photoactivation. Two types of experiments were performed with non-irradiated AAH. In the first type, the test tissue was exposed to AAH for 10 minutes but not irradiated during the latter five minutes; the AAH was washed out before agonist agents were added. That is, the same schedule as was used above was employed, but the preparations were not irradiated. In the second type of experiment with non-irradiated AAH, the compound was added to the bath 15 minutes before and remained present during the addition of agonists. The contralateral control tissues for these experiments received no treatment.
# [3] = Photolysis of AAH (absorbance decline at 266 nm); format: physicochemical
# Experimental: FIG. 1 is spectra of 3×10^-5 M AAH (dissolved in modified Krebs-Henseleit solution) sampled before (solid line) and 5 minutes (dashed line) and 60 minutes (dotted line) after the beginning of irradiation. The reference cuvette contained modified Krebs-Henseleit solution. The inset illustrates the time-course of decline in absorbance a 266 nm; data points were obtained from scans performed after the irradiation intervals shown.
# as §3
# [4] = target: T1, histamine receptor (H1), isolated guinea pig vas deferens (Cavia porcellus, UniProt P31389); assay: Histamine-induced contraction of isolated vas deferens after incubation with non-irradiated AAH and washout; format: cell-based; design: smooth muscle of the guinea-pig vas deferens; from tissue; host or cells: isolated, desheathed vas deferens of adult albino guinea pigs (Hilltop Lab Animals, Scottdale, PA); details: 3×10^-5 M AAH, 10 min incubation, not photoactivated, washed out
# Experimental: as §1, §2, §5
# [5] = tested on: smooth muscle of the guinea-pig vas deferens, MgATP responses; assay: MgATP-induced contraction of isolated vas deferens (specificity of AAH); format: cell-based; details: 3×10^-5 M AAH
# Experimental: as §1, §2, §3, §4
# guinea pig vas deferens = assay: Direct contractile effect on isolated vas deferens; format: cell-based; details: AAH in the concentrations used
# Experimental: as §1
# [6] = target: T1, histamine receptor (H1), isolated guinea pig vas deferens; assay: Histamine-induced contraction of isolated vas deferens after photolysis and washout of AAH; format: cell-based; design: smooth muscle of the guinea-pig vas deferens; from tissue; host or cells: isolated, desheathed vas deferens of adult albino guinea pigs (Hilltop Lab Animals, Scottdale, PA)
# Experimental: as §1, §2, §3
# [7] = target: T1, histamine receptor (H1), isolated guinea pig vas deferens; assay: Histamine-induced contraction of isolated vas deferens in the continual presence of non-irradiated AAH; format: cell-based; design: smooth muscle of the guinea-pig vas deferens; from tissue; host or cells: isolated, desheathed vas deferens of adult albino guinea pigs (Hilltop Lab Animals, Scottdale, PA)
# Experimental: as §1, §2, §5
# [8] = tested on: smooth muscle of the guinea-pig vas deferens, KCl responses; assay: KCl-induced contraction of isolated vas deferens (specificity of AAH); format: cell-based
# Experimental: as §1, §2, §3, §5
# [9] = target: T1, histamine receptor (H1), isolated guinea pig vas deferens; assay: cell-based; design: Emax: dose or concentration left out as unconfirmed
# Experimental: Adult, albino guinea pigs (250-350 g; Hilltop Lab Animals, Scottdale, PA) were killed by a blow to the head. Vasa deferentia were removed, desheathed and mounted in conventional apparatus for the measurement of isometric contractile responses. Each tissue preparation was bathed in a separate glass, water-jacketed organ chamber containing modified Krebs-Henseleit solution (37° C.) for one hour prior to the beginning of the experiment. The tissues were washed every 15 minutes. Resting tension was 200 mg. Agonist agents were added to the bath with stepwise increases in concentration. The agonists were added at 10 minute intervals and the tissues were exposed to each concentration for 2 minutes; the tissues were washed twice with agonist-free Krebs-Henseleit solution, at 5 minute intervals, between agonist additions.
# Effect of AAH after irradiation in the presence of histamine receptor ligands. […] AAH was then added to the test tissue, leaving the control exposed only to ligand, and after a 5-minute incubation, both the test and control tissues were irradiated for 5 minutes. Both tissues were washed twice with fresh Krebs-Henseleit solution to remove all agents, and concentration-response determinations were performed 10 minutes after irradiation.
# [10] = non-irradiated, continually present
# [11] = 3×10^-5 M AAH, non-irradiated, continually present
# [12] = 3×10^-5 M AAH, photoactivated, washed out
# [13] = 3×10^-6 M AAH, photolyzed, washed out
# [14] = 10^-5 M AAH, photolyzed, washed out
# T1 sequence (P31389 whole entry): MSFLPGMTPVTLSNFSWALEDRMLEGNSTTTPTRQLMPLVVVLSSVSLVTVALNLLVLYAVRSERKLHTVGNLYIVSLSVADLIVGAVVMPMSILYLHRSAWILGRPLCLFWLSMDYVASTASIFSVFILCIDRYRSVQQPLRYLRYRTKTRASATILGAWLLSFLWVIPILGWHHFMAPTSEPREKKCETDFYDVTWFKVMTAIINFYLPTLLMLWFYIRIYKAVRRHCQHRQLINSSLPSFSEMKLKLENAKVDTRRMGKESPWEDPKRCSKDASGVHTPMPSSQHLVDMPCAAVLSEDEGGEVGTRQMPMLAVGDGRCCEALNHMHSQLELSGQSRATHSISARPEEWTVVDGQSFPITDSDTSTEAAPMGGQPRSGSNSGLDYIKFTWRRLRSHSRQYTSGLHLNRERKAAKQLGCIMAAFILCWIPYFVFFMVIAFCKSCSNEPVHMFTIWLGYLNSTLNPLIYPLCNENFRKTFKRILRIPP
compound,measurement,setting,value
"[N-]=[N+]=Nc1ccc(NCCc2c[nH]cn2)c([N+](=O)[O-])c1 [AAH, 4(5)-[2-(4-azido-2-nitroanilino)ethyl]imidazole]",shift of norepinephrine concentration-response curve to the left of control,[1]; [10],5.50 fold
same,effect on maximum responses or EC50's of NE,"[1]; photoactivated, washed out",no effect on the maximum responses or EC50's
same,effect on concentration-response relationship for ACh,[2]; [11],no significant effect on concentration-response relationships
same,effect on the maximum response to ACh,[2]; [12],no effect on the maximum response to ACh
same,shift of the ACh concentration-response curve to the right of control,[2]; [12],3.07 fold
same,responses to acetylcholine after photolysis of AAH,[2]; photolyzed AAH,only slightly reduced
same,half-life at 30 µM,"[3]; 3×10^-5 M AAH, modified Krebs-Henseleit solution, tungsten-halogen lamp 650 W, read-out: t1/2 of first-order absorbance reduction at 266 nm caused by photolysis",3.8 min
same,percent of the maximum absorbance reduction produced by the 5-minute photoaffinity labeling period,"[3]; 5 min irradiation, 266 nm",ca. 62%
same,residual effect on responses to histamine,[4],no residual effect on responses to histamine
same,shift of MgATP concentration-response curve to the left of control,[5]; [10],12.89 fold
same,effect on maximum responses or EC50's of MgATP,"[5]; photoactivated, washed out",no effect on the maximum responses or EC50's
same,contraction upon addition to the organ bath,guinea pig vas deferens,did not cause a contraction
same,reversal of antagonism by repeated washing,"[6]; 3×10^-5 M AAH, photolyzed",not reversed by repeated washing
same,effect on the response of the tissues to histamine,"[6]; 3×10^-5 M AAH, photolyzed, washed out",abolished the response of the tissues to histamine
same,effect on maximum response to histamine,[6]; [13],small but significant decrease in the maximum response to histamine
same,shift of the histamine concentration-response curve to the left of control,[6]; [13],1.89 fold
same,effect on the response of the tissues to histamine,[6]; [14],intermediate and irreversible antagonism
same,shape of histamine concentration-response curve,[6]; [14],"""bell""-shaped"
same,concentration range over which antagonism by AAH occurred,[6]; photolyzed AAH,10 fold
same,effect on the response to histamine,[7]; [11],abolished the response to histamine
same,shift of the histamine concentration-response curve to the left of control,"[7]; 3×10^-6 M AAH, non-irradiated, continually present",2.01 fold
same,shape of histamine concentration-response curve,"[7]; 10^-5 M AAH, non-irradiated, continually present","""bell-shaped"" concentration-response curve"
same,concentration range over which antagonism by AAH was observed,"[7]; non-irradiated AAH, continually present",10 fold
same,reversibility of antagonism of histamine by non-photolyzed AAH,[7]; not irradiated,reversible if not irradiated
same,effect on concentration-response relationship for KCl,[8]; [11],no significant effect on concentration-response relationships
same,effect on maximum responses or EC50's of KCl,[8]; [12],no effect on the maximum responses or EC50's
same,EC50,"[8]; Cavia porcellus, light or radiation study, read-out: EC50 of KCl, AAH, 3×10^-5 M AAH, non-irradiated, continually present",15.3 mM
same,EC50,"[8]; Cavia porcellus, light or radiation study, read-out: EC50 of KCl, AAH, 3×10^-5 M AAH, photoactivated, washed out",19.5 mM
"[Cl-].[K+] [KCl, reference compound]",EC50,"[8]; irradiated control without AAH, read-out: EC50 of KCl, control",20 mM
same,EC50,"[8]; non-irradiated control without AAH, read-out: EC50 of KCl, control",25 mM
"NCCc1c[nH]cn1 [histamine, 2-(4-imidazolyl)ethylamine]",protection against AAH-induced antagonism when present during photoactivation of AAH,"[9]; 3×10^-4 M histamine with AAH, n=4",no protective effect
same,Emax,"[9]; read-out: response of the tissue, % of maximum response to histamine",90 to 100%
